Experimental data published in patent publication US7304174B2, “CaSR antagonist” (Japan Tobacco Inc., priority 2003, dated 2007).

What follows are compounds tested against T1, human calcium receptor (Homo sapiens, UniProt P41180) (assay: Evaluation of antagonistic action on calcium receptor using reporter gene (luciferase)). Settings: transformed rat adrenal derived cells, 5 mM calcium chloride, culture 4 hrs, luciferase activity; read-out: Reporter gene assay (IC50, concentration showing 50% inhibitory rate).
T1 construct: expressed in transfected cells; host or cells: cell strain derived from rat adrenal, co-transformed with luciferase cDNA
T1 sequence (P41180 20-1078): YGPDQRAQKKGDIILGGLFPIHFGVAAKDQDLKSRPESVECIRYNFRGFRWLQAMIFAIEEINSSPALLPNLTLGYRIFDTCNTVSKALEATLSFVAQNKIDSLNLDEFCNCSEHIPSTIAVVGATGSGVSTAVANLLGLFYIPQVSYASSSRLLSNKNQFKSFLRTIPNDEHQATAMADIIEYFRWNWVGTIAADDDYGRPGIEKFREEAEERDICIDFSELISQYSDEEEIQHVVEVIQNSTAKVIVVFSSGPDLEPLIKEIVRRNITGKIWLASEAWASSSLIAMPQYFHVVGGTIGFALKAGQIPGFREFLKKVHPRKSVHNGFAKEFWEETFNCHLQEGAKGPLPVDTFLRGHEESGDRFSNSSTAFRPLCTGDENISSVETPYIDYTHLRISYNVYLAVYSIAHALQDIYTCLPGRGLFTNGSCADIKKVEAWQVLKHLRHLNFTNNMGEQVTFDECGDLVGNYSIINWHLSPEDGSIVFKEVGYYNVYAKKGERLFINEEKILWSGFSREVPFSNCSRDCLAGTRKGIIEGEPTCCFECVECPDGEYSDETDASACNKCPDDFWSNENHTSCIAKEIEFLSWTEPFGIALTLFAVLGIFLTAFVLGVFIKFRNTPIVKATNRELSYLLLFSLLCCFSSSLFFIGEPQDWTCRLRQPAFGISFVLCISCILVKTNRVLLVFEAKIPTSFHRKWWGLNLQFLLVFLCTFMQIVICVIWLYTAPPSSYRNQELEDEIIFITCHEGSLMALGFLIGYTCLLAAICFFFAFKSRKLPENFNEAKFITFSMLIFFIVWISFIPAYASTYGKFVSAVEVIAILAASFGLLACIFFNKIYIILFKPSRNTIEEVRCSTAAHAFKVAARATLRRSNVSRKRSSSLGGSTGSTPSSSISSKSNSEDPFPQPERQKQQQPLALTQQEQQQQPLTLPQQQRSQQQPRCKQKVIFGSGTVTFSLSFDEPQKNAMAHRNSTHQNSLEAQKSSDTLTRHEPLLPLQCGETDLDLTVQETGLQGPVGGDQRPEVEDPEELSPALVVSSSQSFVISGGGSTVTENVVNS
Type: cell-based
Method: Evaluation of Antagonistic Action on Calcium Receptor Using Reporter Gene
Luciferase cDNA and human calcium receptor cDNA were introduced into a cell strain derived from rat adrenal to transform the cells, and the transformed cells were cultured in a medium (80 μl, F12 medium containing 0.5% dialyzed horse serum and 0.25% dialyzed bovine fetal serum). A dimethyl sulfoxide solution containing a test compound at 0.1-10000 μM was diluted 100-fold with the medium and added to the test compound group at 10 μl per well (dimethyl sulfoxide final concentration 0.1%). In the same manner as in test compound group, dimethyl sulfoxide 100-fold diluted with medium was added to a control group and a blank group. Then, 50 mM calcium chloride-containing medium was added to every well except the blank group at 10 μl per well (final concentration 5 mM). A medium containing 50 mM calcium chloride was added to the control group at 10 μl per well, such that the final calcium concentration of the medium became 5 mM. A medium alone was added to the blank group. After culture for 4 hrs, luciferase substrate was added and the luciferase activity was measured with a photoluminometer. The inhibitory rate (%) was calculated from the obtained measured values according to the following formula.
Based on the results, the concentration (IC50) showing 50% inhibitory rate was determined. The results are shown in the aforementioned Tables 1 to 60.
For “4-[2-[1-[(2R)-3-[[1-(3-fluoro-4-methylphenyl)-2-methylpropan-2-yl]amino]-2-hydroxypropoxy]ethyl]phenoxy]-3-methoxybenzoic acid [Example 2-2]”, the IC50 was 21 nM.
`CC(OC[C@H](O)CNC(C)(C)Cc1ccc2ccccc2c1)c1ccccc1Cc1ccc(C(=O)O)cc1` (stereo partly drawn) [2-14′] was tested, and the IC50 was 30 nM.
`CC(OC[C@H](O)CNC(C)(C)Cc1ccc2ccccc2c1)c1ccccc1OCc1cccc(C(=O)O)c1` (stereo partly drawn) [2-21′] showed an IC50 of 26 nM.
`CC(OC[C@H](O)CNC(C)(C)Cc1ccc2ccccc2c1)c1ccccc1OCc1ccc(C(=O)O)cc1` (stereo partly drawn) [2-22′] gave an IC50 of 23 nM.
Compound `Cc1cc(CC(C)(C)NC[C@@H](O)CO[C@H](C)c2ccccc2-c2ccc(C(=O)O)c(C)c2)ccc1Cl` [Example 1-4, 2′-[1-[(2R)-3-[[1-(4-chloro-3-methylphenyl)-2-methylpropan-2-yl]amino]-2-hydroxypropoxy]ethyl]-3-methylbiphenyl-4-carboxylic acid] has an IC50 of 14 nM.
`Cc1cc(-c2ccccc2[C@@H](C)OC[C@H](O)CNC(C)(C)Cc2ccc(C)c(F)c2F)ccc1C(=O)O` [Example 1-5, 2′-[1-[(2R)-3-[[1-(2,3-difluoro-4-methylphenyl)-2-methylpropan-2-yl]amino]-2-hydroxypropoxy]ethyl]-3-methylbiphenyl-4-carboxylic acid] gave an IC50 of 3 nM.
`Cc1ccc(CC(C)(C)NC[C@@H](O)CO[C@H](C)c2ccccc2-c2ccc(C(=O)O)c(C)c2)c(F)c1` [Example 1-7, 2′-[1-[(2R)-3-[[1-(2-fluoro-4-methylphenyl)-2-methylpropan-2-yl]amino]-2-hydroxypropoxy]ethyl]-3-methylbiphenyl-4-carboxylic acid] gave an IC50 of 15 nM.
`CCc1ccc(CC(C)(C)NC[C@@H](O)CO[C@H](C)c2ccccc2-c2ccc(C(=O)O)c(C)c2)cc1F` [Example 1-8, 2′-[1-[(2R)-3-[[1-(4-ethyl-3-fluorophenyl)-2-methylpropan-2-yl]amino]-2-hydroxypropoxy]ethyl]-3-methylbiphenyl-4-carboxylic acid] was tested, and the IC50 was 15 nM.
`Cc1cc(C(=O)O)cc(-c2ccccc2[C@@H](C)OC[C@H](O)CNC(C)(C)Cc2ccc3ccccc3c2)c1` [Example 1-9, 3-methyl-2′-[1-[(2R)-3-[[1-(naphthalen-2-yl)-2-methylpropan-2-yl]amino]-2-hydroxypropoxy]ethyl]biphenyl-5-carboxylic acid] gave an IC50 of 16 nM.
For `COC(=O)c1cc(C(=O)OC)cc(-c2ccccc2[C@@H](C)OC[C@H](O)CNC(C)(C)Cc2ccc3ccccc3c2)c1` [Example 1-10, methyl 2′-[1-[(2R)-3-[[1-(naphthalen-2-yl)-2-methylpropan-2-yl]amino]-2-hydroxypropoxy]ethyl]biphenyl-3,5-dicarboxylate], the IC50 was 29 nM.
In the case of `Cc1cc(-c2ccccc2[C@H](OC[C@H](O)CNC(C)(C)Cc2ccc3ccccc3c2)C2CC2)ccc1C(=O)O` [Example 1-11, 2′-[(cyclopropyl)[(2R)-3-[[1-(naphthalen-2-yl)-2-methylpropan-2-yl]amino]-2-hydroxypropoxy]methyl]-3-methylbiphenyl-4-carboxylic acid], the IC50 is reported as 18 nM.
For `Cc1cc(-c2ccccc2[C@@H](C)OC[C@H](O)CNC(C)(C)Cc2ccc3ccccc3c2)ccc1C(=O)O` [Example 1-12, 2′-[1-[(2R)-3-[[1-(naphthalen-2-yl)-2-methylpropan-2-yl]amino]-2-hydroxypropoxy]ethyl]-3-methylbiphenyl-4-carboxylic acid], the IC50 was 13 nM.
Compound `Cc1cc(-c2ccccc2[C@@H](C)OC[C@H](O)CNC(C)(C)Cc2ccc3ccccc3c2)ccc1C(=O)O` [Example 1-13, 2′-[1-[(2R)-3-[[1-(naphthalen-2-yl)-2-methylpropan-2-yl]amino]-2-hydroxypropoxy]ethyl]-3-methylbiphenyl-4-carboxylic acid] has an IC50 of 15 nM.
Work on `Cc1ccc(CC(C)(C)NC[C@@H](O)CO[C@@H](c2ccccc2-c2ccc(C(=O)O)c(C)c2)C2CC2)cc1F` [Example 1-14, 2′-[(cyclopropyl)[(2R)-3-[[1-(3-fluoro-4-methylphenyl)-2-methylpropan-2-yl]amino]-2-hydroxypropoxy]methyl]-3-methylbiphenyl-4-carboxylic acid] yielded an IC50 of 6 nM.
With `Cc1ccc(CC(C)(C)NC[C@@H](O)CO[C@H](C)c2ccccc2-c2ccc(C(=O)O)c(C)c2)cc1F` [Example 1-15, 2′-[1-[(2R)-3-[[1-(3-fluoro-4-methylphenyl)-2-methylpropan-2-yl]amino]-2-hydroxypropoxy]ethyl]-3-methylbiphenyl-4-carboxylic acid] the IC50 was 12 nM.
Work on `Cc1ccc(CC(C)(C)NC[C@@H](O)CO[C@H](C)c2ccccc2-c2ccc(C(=O)O)c(C)c2)cc1F` [Example 1-16, 2′-[1-[(2R)-3-[[1-(3-fluoro-4-methylphenyl)-2-methylpropan-2-yl]amino]-2-hydroxypropoxy]ethyl]-3-methylbiphenyl-4-carboxylic acid] yielded an IC50 of 11 nM.
`Cc1cc(C(=O)O)cc(-c2ccccc2[C@@H](C)OC[C@H](O)CNC(C)(C)Cc2ccc(C)c(F)c2)c1` [Example 1-17, 2′-[1-[(2R)-3-[[1-(3-fluoro-4-methylphenyl)-2-methylpropan-2-yl]amino]-2-hydroxypropoxy]ethyl]-3-methylbiphenyl-5-carboxylic acid] showed an IC50 of 15 nM.
`Cc1cc(-c2ccccc2C(OC[C@H](O)CNC(C)(C)Cc2ccc(Cl)cc2F)C2CC2)ccc1C(=O)O` (stereo partly drawn) [Example 1-18, 2′-[(cyclopropyl)[(2R)-3-[[1-(4-chloro-2-fluorophenyl)-2-methylpropan-2-yl]amino]-2-hydroxypropoxy]methyl]-3-methylbiphenyl-4-carboxylic acid] showed an IC50 of 16 nM.
`Cc1cc(-c2ccccc2[C@H](OC[C@H](O)CNC(C)(C)Cc2ccc(Cl)c(F)c2)C2CC2)ccc1C(=O)O` [Example 1-19, 2′-[(cyclopropyl)[(2R)-3-[[1-(4-chloro-3-fluorophenyl)-2-methylpropan-2-yl]amino]-2-hydroxypropoxy]methyl]-3-methylbiphenyl-4-carboxylic acid] was tested, and the IC50 was 5 nM.
`COc1ccc(CC(C)(C)NC[C@@H](O)CO[C@H](C)c2ccccc2-c2ccc(C(=O)O)c(C)c2)cc1F` [Example 1-20, 2′-[1-[(2R)-3-[[1-(3-fluoro-4-methoxyphenyl)-2-methylpropan-2-yl]amino]-2-hydroxypropoxy]ethyl]-3-methylbiphenyl-4-carboxylic acid] was tested, and the IC50 was 40 nM.
`Cc1ccc(CC(C)(C)NC[C@@H](O)CO[C@H](C)c2ccccc2-c2ccc(C(=O)O)c(C)c2)cc1C` [Example 1-21, 3-methyl-2′-[1-[(2R)-3-[[1-(3,4-dimethylphenyl)-2-methylpropan-2-yl]amino]-2-hydroxypropoxy]ethyl]biphenyl-4-carboxylic acid] showed an IC50 of 13 nM.
`Cc1ccc(CC(C)(C)NC[C@@H](O)CO[C@H](C)c2ccccc2-c2ccc(C(=O)O)c(C)c2)cc1` [Example 1-22, 2′-[1-[(2R)-3-[[1-(4-methylphenyl)-2-methylpropan-2-yl]amino]-2-hydroxypropoxy]ethyl]-3-methylbiphenyl-4-carboxylic acid] was tested, and the IC50 was 12 nM.
Work on `COc1cc(CC(C)(C)NC[C@@H](O)CO[C@H](C)c2ccccc2-c2ccc(C(=O)O)c(C)c2)ccc1Cl` [Example 1-23, 2′-[1-[(2R)-3-[[1-(4-chloro-3-methoxyphenyl)-2-methylpropan-2-yl]amino]-2-hydroxypropoxy]ethyl]-3-methylbiphenyl-4-carboxylic acid] yielded an IC50 of 16 nM.
`CCc1ccc(CC(C)(C)NC[C@@H](O)CO[C@H](C)c2ccccc2-c2ccc(C(=O)O)c(C)c2)cc1` [Example 1-24, 2′-[1-[(2R)-3-[[1-(4-ethylphenyl)-2-methylpropan-2-yl]amino]-2-hydroxypropoxy]ethyl]-3-methylbiphenyl-4-carboxylic acid] was tested, and the IC50 was 20 nM.
